Measured values as given in PMC11602153, “Differential redox sensitivity of tRNA dihydrouridylation” (Nucleic Acids Research, 2024).

T1: DusA (Escherichia coli, UniProt P32695)
T1 construct: expression construct, tags and host not described
T1 sequence (P32695 1-345): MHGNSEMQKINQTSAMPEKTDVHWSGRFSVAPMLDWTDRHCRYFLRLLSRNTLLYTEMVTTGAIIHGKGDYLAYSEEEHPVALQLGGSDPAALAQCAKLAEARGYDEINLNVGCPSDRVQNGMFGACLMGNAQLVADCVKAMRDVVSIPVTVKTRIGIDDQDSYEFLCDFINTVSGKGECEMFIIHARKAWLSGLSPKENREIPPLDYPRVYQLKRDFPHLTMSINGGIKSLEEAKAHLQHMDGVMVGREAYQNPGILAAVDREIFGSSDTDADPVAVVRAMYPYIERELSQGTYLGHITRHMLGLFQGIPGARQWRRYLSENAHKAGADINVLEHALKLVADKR

T2: DusC (Escherichia coli, UniProt P33371)
T2 construct: expression construct, tags and host not described
T2 sequence (P33371 1-315): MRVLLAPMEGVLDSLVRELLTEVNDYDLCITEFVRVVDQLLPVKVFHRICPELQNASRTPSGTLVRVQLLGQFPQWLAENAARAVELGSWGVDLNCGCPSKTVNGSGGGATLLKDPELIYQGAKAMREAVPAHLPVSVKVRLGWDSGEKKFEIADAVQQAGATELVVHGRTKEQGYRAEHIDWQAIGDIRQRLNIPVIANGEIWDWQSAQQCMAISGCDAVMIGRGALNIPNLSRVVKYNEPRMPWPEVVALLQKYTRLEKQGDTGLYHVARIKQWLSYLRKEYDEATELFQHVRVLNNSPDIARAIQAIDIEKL

T3: DusB (Escherichia coli, UniProt P0ABT5)
T3 construct: expression construct, tags and host not described
T3 sequence (P0ABT5 1-321): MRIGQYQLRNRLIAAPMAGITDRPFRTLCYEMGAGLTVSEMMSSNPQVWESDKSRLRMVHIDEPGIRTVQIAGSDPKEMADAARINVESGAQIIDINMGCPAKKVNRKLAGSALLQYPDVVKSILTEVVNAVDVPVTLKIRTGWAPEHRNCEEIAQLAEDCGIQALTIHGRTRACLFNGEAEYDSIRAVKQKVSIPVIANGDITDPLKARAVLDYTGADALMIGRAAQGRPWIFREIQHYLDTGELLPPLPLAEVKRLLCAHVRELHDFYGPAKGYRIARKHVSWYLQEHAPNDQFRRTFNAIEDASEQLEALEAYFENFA

B1: DusA (Escherichia coli K-12) (protein)
chain: MHGNSEMQKINQTSAMPEKTDVHWSGRFSVAPMLDWTDRHCRYFLRLLSRNTLLYTEMVTTGAIIHGKGDYLAYSEEEHPVALQLGGSDPAALAQCAKLAEARGYDEINLNVGCPSDRVQNGMFGACLMGNAQLVADCVKAMRDVVSIPVTVKTRIGIDDQDSYEFLCDFINTVSGKGECEMFIIHARKAWLSGLSPKENREIPPLDYPRVYQLKRDFPHLTMSINGGIKSLEEAKAHLQHMDGVMVGREAYQNPGILAAVDREIFGSSDTDADPVAVVRAMYPYIERELSQGTYLGHITRHMLGLFQGIPGARQWRRYLSENAHKAGADINVLEHALKLVADKR
notes: expression construct, tags and host not described

What was measured:
DusA = molecular target: T1, DusA; test: flavin bound to the purified protein; assay type: binding; conditions: non-covalent; flavin named FMN elsewhere in the paper
DusC = molecular target: T2, DusC; test: flavin bound to the purified protein; assay type: binding; conditions: non-covalent; flavin named FMN elsewhere in the paper
DusB = molecular target: T3, DusB; test: flavin bound to the purified protein; assay type: binding; conditions: non-covalent; flavin named FMN elsewhere in the paper
[1] = substrate: NC(=O)C1=CN([C@@H]2O[C@H](COP(=O)(O)OP(=O)(O)OC[C@H]3O[C@@H](n4cnc5c(N)ncnc54)[C@H](OP(=O)(O)O)[C@@H]3O)[C@@H](O)[C@H]2O)C=CC1; test: NADPH oxidase, spectrophotometric, steady state; assay type: biochemical, Escherichia coli; conditions: air (O2) as final electron acceptor, 50 mM HEPES pH 7.5, 150 mM NaCl, 15% glycerol, no tRNA

Molecule	flavin bound to the purified protein (DusA)	flavin bound to the purified protein (DusC)	flavin bound to the purified protein (DusB)	Km [1]	kcat [1]
Cc1cc2nc3c(=O)[nH]c(=O)nc-3n(C[C@H](O)[C@H](O)[C@H](O)COP(=O)(O)O)c2cc1C [FMN]	exhibited non-covalently bound flavin, associated with the apoproteins	exhibited non-covalently bound flavin, associated with the apoproteins	exhibited non-covalently bound flavin, associated with the apoproteins		
B1				17 ± 3 µM	0.48 ± 0.072 s⁻¹
